The values that follow come from patent publication US8183380B2, “2-aminoquinolines” (Hoffmann-La Roche Inc., priority 2008, dated 2012).

The target in the experiment is T1, recombinant human 5-HT5A receptor (Homo sapiens, UniProt P47898).
T1 construct: expressed in transfected cells; host or cells: HEK-EBNA (Human Embryonic Kidney-EBNA) cells, transient cDNA expression; membranes
T1 sequence (P47898 whole entry): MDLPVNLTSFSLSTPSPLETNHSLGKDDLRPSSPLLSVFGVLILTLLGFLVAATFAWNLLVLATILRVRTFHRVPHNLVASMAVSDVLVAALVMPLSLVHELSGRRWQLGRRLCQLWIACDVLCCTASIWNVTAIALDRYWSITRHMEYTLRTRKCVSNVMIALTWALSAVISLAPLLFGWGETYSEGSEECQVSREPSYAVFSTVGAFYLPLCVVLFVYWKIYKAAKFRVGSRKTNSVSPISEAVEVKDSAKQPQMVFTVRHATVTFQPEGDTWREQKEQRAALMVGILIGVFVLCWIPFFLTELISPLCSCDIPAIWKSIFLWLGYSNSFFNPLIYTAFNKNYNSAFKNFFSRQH
Kind of experiment: [3H]LSD radioligand binding assay. Particulars: [3H]LSD (approximately 1 nM); membranes from transiently expressed 5-HT5A receptors in HEK-EBNA cells; Ki from IC50 by Cheng-Prussoff equation. On the procedure:
A [^3H]LSD radioligand binding assay was used to determine the affinity of the compounds for the recombinant human 5-HT5A receptor, in membranes from transiently (cDNA) expressed 5-HT5A receptors in Human Embryonic Kidney-EBNA (HEK-EBNA) cells. Assay buffer consisted of Tris (50 mM) buffer containing 1 mM EGTA, 10 mM MgCl2 (pH 7.4) and 10 μM pargyline. The binding assay was carried out in 96-well-plates in the presence of [^3H]LSD (approximately 1 nM), approximately 2 μg/well of membrane protein, and 0.5 mg of Ysi-poly-1-lysine SPA beads in a final volume of 200 μl of buffer. Non-specific binding was defined using methiothepin 2 μM. Compounds were tested at 10 concentrations. All assays were conducted in duplicate and repeated at least two times. Assay plates were incubated for 120 min at room temperature before centrifugation. Bound ligand was determined using a Packard Topcount scintillation counter. IC50 values were calculated using a non-linear curve fitting program and Ki values calculated using the Cheng-Prussoff equation.
On to `COc1cccc2c1C(Nc1ccc3cc(NC(=O)NC4CCN(CCO)CC4)ccc3n1)CC2` (racemic) [Example 189, rac-1-[1-(2-Hydroxy-ethyl)-piperidin-4-yl]-3-[2-(7-methoxy-indan-1-ylamino)-quinolin-6-yl]-urea], for which the Ki stood at 1.8 nM.
Next, `COc1cc(C)cc2c1C(Nc1ccc3cc(NC(=O)NC(C)C)ccc3n1)CC2` (racemic) [Example 130, rac-1-Isopropyl-3-[2-(7-methoxy-5-methyl-indan-1-ylamino)-quinolin-6-yl]-urea]: 3.4 nM; “(2-Methoxy-ethyl)-methyl-sulfonic acid [2-((R)-indan-1-ylamino)quinolin-6-yl]-amide [Example 75]”: 8.3 nM.
`CC(C)N1CCC(NC(=O)Nc2ccc3nc(NC4CCc5cccc(F)c54)ccc3c2)CC1` (racemic) [Example 156, rac-1-[2-(7-Fluoro-indan-1-ylamino)-quinolin-6-yl]-3-(1-isopropyl-piperidin-4-yl)-urea]: the Ki was 3.8 nM.
Next, `O=C(Nc1ccc2nc(N[C@@H]3CCc4ccccc43)ccc2c1)NC1CCN(CCO)CC1` [Example 137, 1-[1-(2-Hydroxy-ethyl)-piperidin-4-yl]-3-[2-((R)-indan-1-ylamino)-quinolin-6-yl]-urea]: 1.7 nM; `O=C(NCC1CC1)Nc1ccc2nc(N[C@@H]3CCc4ccccc43)ccc2c1` [Example 23, 1-Cyclopropylmethyl-3-[2-((R)-indan-1-ylamino)-quinolin-6-yl]-urea]: 4.7 nM.
Next, `O=C(Nc1ccc2nc(N[C@@H]3CCc4ccccc43)ccc2c1)N[C@@H]1C[C@H]2CCC[C@@H](C1)N2C1CC1` [Example 110, 1-((3-exo)-9-Cyclopropyl-9-aza-bicyclo[3.3.1]non-3-yl)-3-[2-((R)-indan-1-ylamino)-quinolin-6-yl]-urea]: 7.2 nM; `O=C(Nc1ccc2nc(N[C@@H]3CCc4ccccc43)ccc2c1)NC1CCN(CCC(F)(F)F)CC1` [Example 63, 1-[2-((R)-Indan-1-ylamino)-quinolin-6-yl]-3-[1-(3,3,3-trifluoro-propyl)-piperidin-4-yl]-urea]: 10.4 nM; `COc1cccc2c1C(Nc1ccc3cc(N)ccc3n1)CC2` (racemic) [Example 172, rac-N^2-(7-Methoxy-indan-1-yl)-quinoline-2,6-diamine]: 3.3 nM.
In the case of `N#CCN1CCC(NC(=O)Nc2ccc3nc(N[C@@H]4CCc5ccccc54)ccc3c2)CC1` [Example 133, 1-(1-Cyanomethyl-piperidin-4-yl)-3-[2-((R)-indan-1-ylamino)-quinolin-6-yl]-urea] it was 4.2 nM; in that of `O=C(Nc1ccc2nc(N[C@@H]3CCc4ccccc43)ccc2c1)NC1CCNCC1` [Example 39, 1-[2-((R)-Indan-1-ylamino)-quinolin-6-yl]-3-piperidin-4-yl-urea], 3.9 nM.
`COCCN1CCC(NC(=O)Nc2ccc3nc(NC4CCc5cccc(OC)c54)ccc3c2)CC1` (racemic) [Example 45, rac-1-[1-(2-Methoxy-ethyl)-piperidin-4-yl]-3-[2-(7-methoxy-indan-1-ylamino)-quinolin-6-yl]-urea]: the Ki is 3 nM.
Consider `CC(C)N1[C@@H]2CC[C@H]1C[C@H](NC(=O)Nc1ccc3nc(N[C@@H]4CCc5ccccc54)ccc3c1)C2` [Example 170, 1-[2-((R)-Indan-1-ylamino)-quinolin-6-yl]-3-((3-exo)-8-isopropyl-8-aza-bicyclo[3.2.1]oct-3-yl)-urea], for which the Ki amounted to 7.1 nM.
Take `CC(C)N1CCC(NC(=O)Nc2ccc3nc(N[C@@H]4CCc5ccccc54)ccc3c2)CC1` [Example 42, 1-[2-((R)-Indan-1-ylamino)-quinolin-6-yl]-3-(1-isopropyl-piperidin-4-yl)-urea]: the Ki was found to be 2.4 nM.
`COc1cccc2c1C(Nc1ccc3cc(NC(=O)N(C)C4CCN(C(C)C)CC4)ccc3n1)CC2` (racemic) [Example 179, rac-1-(1-Isopropyl-piperidin-4-yl)-3-[2-(7-methoxy-indan-1-ylamino)-quinolin-6-yl]-1-methyl-urea]: the Ki is 7.1 nM.
In the case of `COc1cccc2c1C(Nc1ccc3cc(NC(=O)NC(C)C)ccc3n1)CC2` (racemic) [Example 12, rac-1-Isopropyl-3-[2-(7-methoxy-indan-1-ylamino)-quinolin-6-yl]-urea] it was 1.5 nM; in that of `CN(C)C(=O)CN1CCC(NC(=O)Nc2ccc3nc(N[C@@H]4CCc5ccccc54)ccc3c2)CC1` [Example 136, 2-(4-{3-[2-((R)-Indan-1-ylamino)-quinolin-6-yl]-ureido}-piperidin-1-yl)-N,N-dimethylacetamide], 6.5 nM.
In the case of `O=C(Nc1ccc2nc(N[C@@H]3CCc4ccccc43)ccc2c1)NC1CCOCC1` [Example 19, 1-[2-((R)-Indan-1-ylamino)-quinolin-6-yl]-3-(tetrahydro-pyran-4-yl)-urea] it was 4 nM; in that of `CN1CCC(NC(=O)Nc2ccc3nc(N[C@@H]4CCc5ccccc54)ccc3c2)CC1` [Example 20, 1-[2-((R)-Indan-1-ylamino)-quinolin-6-yl]-3-(1-methyl-piperidin-4-yl)-urea], 1.8 nM; in that of `CN1CCC(NC(=O)Nc2ccc3nc(NC4COc5ccccc54)ccc3c2)CC1` (racemic) [Example 35, rac-1-[2-(2,3-Dihydro-benzofuran-3-ylamino)-quinolin-6-yl]-3-(1-methyl-piperidin-4-yl)-urea], 9.6 nM.
`CN1[C@@H]2CC[C@H]1C[C@H](NC(=O)Nc1ccc3nc(N[C@@H]4CCc5ccccc54)ccc3c1)C2` [Example 101, 1-[2-((R)-Indan-1-ylamino)-quinolin-6-yl]-3-((3-exo)-8-methyl-8-aza-bicyclo[3.2.1]oct-3-yl)-urea]: the Ki came to 3.7 nM.
As to `COc1cccc2c1C(Nc1ccc3cc(NC(=O)C4CC4)ccc3n1)CO2` (racemic) [Example 195, rac-Cyclopropanecarboxylic acid [2-(4-methoxy-2,3-dihydro-benzofuran-3-ylamino)-quinolin-6-yl]-amide], the Ki was 7.3 nM.
In the case of `COc1cccc2c1C(Nc1ccc3cc(NC(=O)NC4CCN(C(C)C)CC4)ccc3n1)CC2` (racemic) [Example 44, rac-1-(1-Isopropyl-piperidin-4-yl)-3-[2-(7-methoxy-indan-1-ylamino)-quinolin-6-yl]-urea] it was 3 nM.
Next, `O=C(Nc1ccc2nc(N[C@@H]3CCc4ccccc43)ccc2c1)NC1CCN(CCF)CC1` [Example 97, 1-[1-(2-Fluoro-ethyl)-piperidin-4-yl]-3-[2-((R)-indan-1-ylamino)-quinolin-6-yl]-urea]: 2.9 nM.
In the case of `COc1cccc2c1C(Nc1ccc3cc(NC(=O)NC4CCN(C(C)C)CC4)ccc3n1)CO2` (racemic) [Example 180, rac-1-(1-Isopropyl-piperidin-4-yl)-3-[2-(4-methoxy-2,3-dihydro-benzofuran-3-ylamino)-quinolin-6-yl]-urea] it was 2.8 nM; in that of `COc1cccc2c1C(Nc1ccc3cc(NC(=O)N(C)C4CCN(CCO)CC4)ccc3n1)CC2` (racemic) [Example 206, rac-1-[1-(2-Hydroxy-ethyl)-piperidin-4-yl]-3-[2-(7-methoxy-indan-1-ylamino)-quinolin-6-yl]-1-methyl-urea], 6.7 nM; in that of `CCOc1cccc2c1C(Nc1ccc3cc(NC(=O)NC4CCN(C(C)C)CC4)ccc3n1)CO2` (racemic) [Example 181, rac-1-[2-(4-Ethoxy-2,3-dihydro-benzofuran-3-ylamino)-quinolin-6-yl]-3-(1-isopropyl-piperidin-4-yl)-urea], 4.1 nM.
For `COc1cccc2c1C(Nc1ccc3cc(NC(=O)NC4CCN(CCC(F)(F)F)CC4)ccc3n1)CC2` (racemic) [Example 47, rac-1-[2-(7-Methoxy-indan-1-ylamino)-quinolin-6-yl]-3-[1-(3,3,3-trifluoro-propyl)-piperidin-4-yl]-urea], the Ki is 3 nM.
In the case of `COc1cccc2c1C(Nc1ccc3cc(NC(=O)NC4CCN(C5CC5)CC4)ccc3n1)CC2` (racemic) [Example 53, rac-1-(1-Cyclopropyl-piperidin-4-yl)-3-[2-(7-methoxy-indan-1-ylamino)-quinolin-6-yl]-urea] it was 3.1 nM; in that of `O=S(=O)(Nc1ccc2nc(N[C@@H]3CCc4ccccc43)ccc2c1)N1C[C@@H]2C[C@H]1CO2` [Example 88, (1S,4S)-2-Oxa-5-aza-bicyclo[2.2.1]heptane-5-sulfonic acid [2-((R)-indan-1-ylamino)-quinolin-6-yl]-amide], 2.5 nM.
As for `O=S(=O)(Nc1ccc2nc(N[C@@H]3CCc4ccccc43)ccc2c1)N1CCOCC1` [Example 76, Morpholine-4-sulfonic acid [2-((R)-indan-1-ylamino)-quinolin-6-yl]-amide], the inhibition constant (Ki) is 9.9 nM.
In the case of `CC(C)NC(=O)Nc1ccc2nc(NC3CCc4cc(F)ccc43)ccc2c1` (racemic) [Example 107, rac-1-[2-(5-Fluoro-indan-1-ylamino)-quinolin-6-yl]-3-isopropyl-urea] it was 4.4 nM.
In the case of `COCCNC(=O)Nc1ccc2nc(N[C@@H]3CCc4ccccc43)ccc2c1` [Example 17, 1-[2-((R)-Indan-1-ylamino)-quinolin-6-yl]-3-(2-methoxy-ethyl)-urea] it was 7 nM.
Next, `CN(C1CC1)S(=O)(=O)Nc1ccc2nc(N[C@@H]3CCc4ccccc43)ccc2c1` [Example 85, N-cyclopropyl-N′-{2-[(1R)-2,3-dihydro-1H-inden-1-ylamino]quinolin-6-yl}-N-methylsulfamide]: 9.3 nM.
